Experimental data as given in patent publication US9845297B2, “Antimicrobial compounds and methods of making and using the same” (Melinta Therapeutics, Inc., priority 2009, dated 2017).

Each compound was assayed on Eschericia coli strain ATCC25922 (assay: standard microdilution assay to determine minimum inhibitory concentrations (MICs)). Conditions: Escherichia coli, ATCC25922, Eschericia coli strain ATCC25922, standard microdilution assay; read-out: E. coli ATCC25922 MIC.
Type: cell-based
Experimental: Minimum inhibitory concentrations (MICs) are determined by the microdilution method, typically in a final volume of 100 microliters, according to protocols outlined by The Clinical and Laboratory Standards Institute [CLSI; formerly the National Committee for Clinical Laboratory Standards (NCCLS)]. See CLSI: Methods for dilution antimicrobial susceptibility tests for bacteria that grow aerobically; approved standard-fifth edition. Wayne, Pa.: NCCLS; 2000. The assays can be also be performed in microtiter trays according to conventional methodologies as published by the CLSI. See CLSI. Methods for Dilution Antimicrobial Susceptibility Tests for Bacteria That Grow Aerobically; Approved Standard-Seventh Edition. CLSI Document M7-A7 [ISBN 1-56238-587-9] CLSI, 940 West Valley Road, Suite 1400, Wayne Pa. 19087-1898 USA, 2006).
The compounds of the present invention were tested for antimicrobial activity. The compounds were run against Eschericia coli strain ATCC25922 using a standard microdilution assay to determine minimum inhibitory concentrations (MICs). […] A “N/A” means that data is unavailable. It will be recognized by one skilled in the art that the compounds can be assessed against other bacterial organisms and that the presentation of data for activity against Eschericia coli is illustrative and in no way is intended to limit the scope of the present invention. The compounds of the present invention can be assayed against a range of other microorganisms depending upon the performance activity desired to be gathered. Furthermore, the “+”, “−”, and “N/A” representation and the selection of a cutoff value of 16 micrograms/ml is also illustrative and in no way is intended to limit the scope of the present invention.

`CN1CCN(c2ccc(NC(=O)Nc3ccn(CCCC(CCCNC(=N)N)NCCCN)c(=O)n3)cc2)CC1` (centres unmarked) [Compound 185] and `CN1CCN(c2ccc(C(=O)Nc3ccn(CCC[C@H](CCCNC(=N)N)NCCCN)c(=O)n3)cc2)CC1` [Compound 190] cannot be ordered by MIC: under 16 mg/L for the first, under 16 mg/L for the second.

Compared with `N=C(N)NCCCC(CCCn1ccc(NC(=O)Nc2ccc(N3CCCCC3)cc2)nc1=O)NCCCN` (centres unmarked) [Compound 186], `CN(C)CCN1CCN(c2ccc(NC(=O)Nc3ccn(CCCC(CCCNC(=N)N)NCCCN)c(=O)n3)cc2)CC1` (centres unmarked) [Compound 208] is lower in MIC: over 16 mg/L for the first, under 16 mg/L for the second.

`N=C(N)NCCCC(CCCn1ccc(NC(=O)c2ccc(N3CCOCC3)nc2)nc1=O)NCCCN` (centres unmarked) [Compound 187] and `N=C(N)NCCCC(CCCn1ccc(NC(=O)c2ccc(N3CCOCC3)cc2)nc1=O)NCCCN` (centres unmarked) [Compound 189] cannot be ordered by MIC: over 16 mg/L for the first, over 16 mg/L for the second.

Compared with `CN(C)c1ccc(NC(=O)Nc2nc(=O)c(-c3ccc(CN(CCCN)CCCN)cc3)c[nH]2)cc1` [Compound 188], `CN1CCN(c2ccc(NC(=O)Nc3nc(=O)c(-c4ccc(CN(CCCN)CCCN)cc4)c[nH]3)cc2)CC1` [Compound 191] is lower in MIC: over 16 mg/L for the first, under 16 mg/L for the second.

First: CC(N)(CO)C(=O)Nc1ccc(C(=O)Nc2ccn(CCC[C@H](CCCNC(=N)N)NCCCN)c(=O)n2)cc1 (some centres unmarked) [Compound 199]
Second: CN(C)C(=O)CN1CCN(c2ccc(NC(=O)Nc3ccn(CCC[C@H](CCCNC(=N)N)NCCCN)c(=O)n3)cc2)CC1 [Compound 214]
The MIC of the first is lower: under 16 mg/L for the first, over 16 mg/L for the second.

First: NCCCN(CCCN)Cc1ccc(-c2c[nH]c(NC(=O)Cc3ccc(C(F)(F)F)cc3)nc2=O)cc1 [Compound 205]
Second: NCCCN(CCCN)Cc1ccc(-c2c[nH]c(NC(=O)Nc3ccccc3OC(F)(F)F)nc2=O)cc1 [Compound 256]
The MIC of the first is higher: over 16 mg/L for the first, under 16 mg/L for the second.

`CN1CCN(C2CCN(c3ccc(NC(=O)Nc4nc(=O)c(-c5ccc(CN(CCCN)CCCN)cc5)c[nH]4)cc3)CC2)CC1` [Compound 209] and `CN(C)CCN1CCN(c2ccc(NC(=O)Nc3nc(=O)c(-c4ccc(CN(CCCN)CCCN)cc4)c[nH]3)cc2)CC1` [Compound 210] cannot be ordered by MIC: under 16 mg/L for the first, under 16 mg/L for the second.

First: CN(C)C(=O)CN1CCN(c2ccc(NC(=O)Nc3nc(=O)c(-c4ccc(CN(CCCN)CCCN)cc4)c[nH]3)cc2)CC1 [Compound 211]
Second: CN1CCN(c2ccc(NC(=O)Nc3ccn(-c4ccc(CN(CCCN)CCCNC(=N)N)cc4)c(=O)n3)cc2)CC1 [Compound 222]
The MIC of the first is higher: over 16 mg/L for the first, under 16 mg/L for the second.

`CN(C)CCN1CCN(c2ccc(C(=O)Nc3ccn(CCC[C@H](CCCNC(=N)N)NCCCN)c(=O)n3)cc2)CC1` [Compound 213] and `N=C(N)NCCCN(CCCN)Cc1ccc(-n2ccc(NC(=O)Nc3ccc(F)c(F)c3)nc2=O)cc1` [Compound 223] cannot be ordered by MIC: over 16 mg/L for the first, over 16 mg/L for the second.

`NCc1ccc(-c2c[nH]c(NC(=O)Nc3cc(F)c(F)cc3F)nc2=O)cc1` [Compound 238] and `NCCCNCc1ccc(-c2c[nH]c(NC(=O)Nc3cc(F)c(F)cc3F)nc2=O)cc1` [Compound 239] cannot be ordered by MIC: over 16 mg/L for the first, over 16 mg/L for the second.

Compared with `NCCCNCc1ccc(-c2c[nH]c(NC(=O)Nc3ccccc3OC(F)(F)F)nc2=O)cc1Cl` [Compound 242], `O=C(Nc1nc(=O)c(-c2ccc(CNCCCF)c(Cl)c2)c[nH]1)Nc1ccccc1OC(F)(F)F` [Compound 271] is higher in MIC: under 16 mg/L for the first, over 16 mg/L for the second.

`NCCCNCc1ccc(-c2c[nH]c(NC(=O)Nc3cccc(Cl)c3Cl)nc2=O)cc1Cl` [Compound 243] and `NCCCNCc1ccc(-c2c[nH]c(NC(=O)Nc3cccc(Cl)c3Cl)nc2=O)cc1F` [Compound 252] cannot be ordered by MIC: under 16 mg/L for the first, under 16 mg/L for the second.

`NCCCNCc1ccc(-c2c[nH]c(NC(=O)Nc3ccc(OC(F)F)cc3)nc2=O)cc1Cl` [Compound 244] and `NCCCNCc1ccc(-c2c[nH]c(NC(=O)Nc3ccc(OC(F)F)cc3)nc2=O)cc1C(F)(F)F` [Compound 270] cannot be ordered by MIC: over 16 mg/L for the first, over 16 mg/L for the second.

`NCCCNCc1ccc(-c2c[nH]c(NC(=O)Nc3ccccc3OC(F)(F)F)nc2=O)cc1F` [Compound 246] and `NCCCNCc1ccc(-c2c[nH]c(NC(=O)Nc3ccccc3OC(F)(F)F)nc2=O)cc1C(F)(F)F` [Compound 269] cannot be ordered by MIC: under 16 mg/L for the first, under 16 mg/L for the second.

`NCc1ccc(-c2c[nH]c(NC(=O)Nc3ccccc3OC(F)(F)F)nc2=O)cc1F` [Compound 247] and `NCc1ccc(-c2c[nH]c(NC(=O)Nc3ccccc3OC(F)(F)F)nc2=O)cc1C(F)(F)F` [Compound 248] cannot be ordered by MIC: over 16 mg/L for the first, over 16 mg/L for the second.

First: NCCCNCc1ccc(-c2c[nH]c(NC(=O)Nc3ccc(OC(F)(F)F)cc3)nc2=O)cc1F [Compound 249]
Second: NCCCNCc1ccc(-c2c[nH]c(NC(=O)Nc3ccc(C(F)(F)F)cc3)nc2=O)cc1C(F)(F)F [Compound 273]
The MIC of the first is lower: under 16 mg/L for the first, over 16 mg/L for the second.

Compared with `NC1CCN(Cc2ccc(-c3c[nH]c(NC(=O)Nc4ccccc4OC(F)(F)F)nc3=O)cc2)CC1` [Compound 251], `O=C(Nc1nc(=O)c(-c2ccc(CNCC3CC3)cc2)c[nH]1)Nc1ccccc1OC(F)(F)F` [Compound 274] is higher in MIC: under 16 mg/L for the first, over 16 mg/L for the second.

`NCCCNCc1ccc(-c2c[nH]c(NC(=O)NCc3ccc(F)cc3)nc2=O)cc1F` [Compound 255] and `O=C(NCc1ccc(F)cc1)Nc1nc(=O)c(-c2ccc(CNCCCF)c(Cl)c2)c[nH]1` [Compound 257] cannot be ordered by MIC: over 16 mg/L for the first, over 16 mg/L for the second.

`NCCCNCc1ccc(-c2c[nH]c(NC(=O)Nc3cccc(Cl)c3Cl)nc2=O)cc1C(F)(F)F` [Compound 259] and `NCCCNCc1ccc(-c2c[nH]c(NC(=O)Nc3cc(F)c(F)cc3F)nc2=O)cc1C(F)(F)F` [Compound 266] cannot be ordered by MIC: under 16 mg/L for the first, under 16 mg/L for the second.

`CSCCNCc1ccc(-c2c[nH]c(NC(=O)Nc3ccccc3OC(F)(F)F)nc2=O)cc1Cl` [Compound 260] and `CSCCCNCc1ccc(-c2c[nH]c(NC(=O)Nc3ccccc3OC(F)(F)F)nc2=O)cc1` [Compound 282] cannot be ordered by MIC: over 16 mg/L for the first, over 16 mg/L for the second.

`NCCCNCc1ccc(-c2c[nH]c(NC(=O)Nc3cc(F)c(F)cc3F)nc2=O)cc1F` [Compound 265] and `NCCCNCc1c(F)cc(-c2c[nH]c(NC(=O)Nc3cc(F)c(F)cc3F)nc2=O)cc1F` [Compound 287] cannot be ordered by MIC: over 16 mg/L for the first, over 16 mg/L for the second.

`CSCCNCc1ccc(-c2c[nH]c(NC(=O)NCc3ccc(F)cc3)nc2=O)cc1Cl` [Compound 267] and `CSCCNCc1ccc(-c2c[nH]c(NC(=O)Nc3cc(F)c(F)cc3F)nc2=O)cc1Cl` [Compound 268] cannot be ordered by MIC: over 16 mg/L for the first, over 16 mg/L for the second.

`O=C(Nc1nc(=O)c(-c2ccc(CNCC3CC3)cc2)c[nH]1)Nc1cc(F)c(F)cc1F` [Compound 275] and `O=C(Nc1nc(=O)c(-c2ccc(CNCCCO)cc2)c[nH]1)Nc1cc(F)c(F)cc1F` [Compound 276] cannot be ordered by MIC: over 16 mg/L for the first, over 16 mg/L for the second.

Going from `O=C(Nc1nc(=O)c(-c2ccc(CNCCCO)cc2)c[nH]1)Nc1ccccc1OC(F)(F)F` [Compound 277] to `NCCCNCc1ccc(-c2c[nH]c(NC(=O)Nc3ccccc3OC(F)(F)F)nc2=O)cc1` [Compound 278], the MIC falls from over 16 mg/L to under 16 mg/L.

`CSCCCNCc1ccc(-c2c[nH]c(NC(=O)Nc3cc(F)c(F)cc3F)nc2=O)cc1` [Compound 281] and `C[S+]([O-])CCCNCc1ccc(-c2c[nH]c(NC(=O)Nc3cc(F)c(F)cc3F)nc2=O)cc1` (centres unmarked) [Compound 302] cannot be ordered by MIC: over 16 mg/L for the first, over 16 mg/L for the second.

`O=C(Nc1nc(=O)c(-c2ccc(CNCC(O)CO)cc2)c[nH]1)Nc1ccccc1OC(F)(F)F` (centres unmarked) [Compound 283] and `O=C(O)CCNCc1ccc(-c2c[nH]c(NC(=O)Nc3ccccc3OC(F)(F)F)nc2=O)cc1` [Compound 300] cannot be ordered by MIC: over 16 mg/L for the first, over 16 mg/L for the second.

`O=C(Nc1nc(=O)c(-c2ccc(CNCC(O)CO)cc2)c[nH]1)Nc1cc(F)c(F)cc1F` (centres unmarked) [Compound 284] and `Cn1ccnc1CNCc1ccc(-c2c[nH]c(NC(=O)Nc3cc(F)c(F)cc3F)nc2=O)cc1` [Compound 299] cannot be ordered by MIC: over 16 mg/L for the first, over 16 mg/L for the second.

Compared with `NCCCNCc1c(F)cc(-c2c[nH]c(NC(=O)Nc3ccccc3OC(F)(F)F)nc2=O)cc1F` [Compound 285], `NCCCN(CCCN)Cc1c(F)cc(-c2c[nH]c(NC(=O)Nc3ccccc3OC(F)(F)F)nc2=O)cc1F` [Compound 294] is lower in MIC: over 16 mg/L for the first, under 16 mg/L for the second.

Going from `NCCCNCc1c(F)cc(-c2c[nH]c(NC(=O)Nc3cccc(Cl)c3Cl)nc2=O)cc1F` [Compound 286] to `NCCCN(CCCN)Cc1c(F)cc(-c2c[nH]c(NC(=O)Nc3cccc(Cl)c3Cl)nc2=O)cc1F` [Compound 297], the MIC falls from over 16 mg/L to under 16 mg/L.

`Cn1ccnc1CNCc1ccc(-c2c[nH]c(NC(=O)Nc3ccccc3OC(F)(F)F)nc2=O)cc1` [Compound 290] and `O=C(Nc1nc(=O)c(-c2ccc(CNCc3nccs3)cc2)c[nH]1)Nc1ccccc1OC(F)(F)F` [Compound 291] cannot be ordered by MIC: over 16 mg/L for the first, over 16 mg/L for the second.

First: NCCCN(CCCN)Cc1c(F)cc(-c2c[nH]c(NC(=O)Nc3cc(F)c(F)cc3F)nc2=O)cc1F [Compound 295]
Second: CC(C)=CCN(CCCN)Cc1ccc(-c2c[nH]c(NC(=O)Nc3cc(F)c(F)cc3F)nc2=O)cc1 [Compound 303]
The MIC of the first is higher: over 16 mg/L for the first, under 16 mg/L for the second.

First: CC(C)=CCN(CCCN)Cc1ccc(-c2c[nH]c(NC(=O)Nc3ccccc3OC(F)(F)F)nc2=O)cc1 [Compound 304]
Second: NCCCN(CCCOC(=O)Nc1ccccc1OC(F)(F)F)Cc1ccc(-c2c[nH]c(NC(=O)Nc3ccccc3OC(F)(F)F)nc2=O)cc1 [Compound 305]
The MIC of the first is lower: under 16 mg/L for the first, over 16 mg/L for the second.

With `NCCCN(CCCN)Cc1ccc(-c2c[nH]c(NC(=O)Nc3cccc(Cl)c3Cl)nc2=O)cc1F` [Compound 307] the MIC was under 16 mg/L.
